Measurements reported in patent US20130272963A1, “Cholesterol Efflux Assay Probe Formulations, Methods of Making and Using” (THE OHIO STATE UNIVERSITY, priority 2012, published 2013).

Assay: Drug loading of CHEAP formulation
Conditions: hydrophobic model drugs loaded into CHEAP
Experimental: The intracellular delivery of hydrophobic drugs was conducted using a CHEAP formulation vehicle. Loading, as well as stability, of the drug-loaded CHEAP formulations was investigated on three different hydrophobic drugs. Rosiglitazone (RSG), Paclitaxel (PAX), and Tamoxifen (TAM) were used as model drugs for loading (FIG. 6A).

Question: Which “binding affinity towards the CHEAP formulation” value does the source give for `CC(=O)O[C@H]1C(=O)[C@@]2(C)[C@H]([C@H](OC(=O)c3ccccc3)[C@]3(O)C[C@H](OC(=O)[C@H](O)[C@@H](NC(=O)c4ccccc4)c4ccccc4)C(C)=C1C3(C)C)[C@]1(OC(C)=O)CO[C@@H]1C[C@@H]2O` [PAX, Paclitaxel] here?
Answer: Its value is “high binding affinity”.

Question: With `CC/C(=C(\c1ccccc1)c1ccc(OCCN(C)C)cc1)c1ccccc1` [TAM, Tamoxifen] as the compound, how does the “binding affinity towards the CHEAP formulation” value read?
Answer: Its value is “high binding affinity”.
